In PubChem BioAssay (NCI):
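48-hour exposure; five concentrations; linearly interpolated endpoints. At the GI50, growth is halved. At the TGI there is no net growth.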

Legend:
Test in all cases: inhibition of tumour cell growth, NCI panel, 48 h
PC-3 prostate = test system: PC-3 prostate
CCRF-CEM leukemia = test system: CCRF-CEM leukemia
BT-549 breast = test system: BT-549 breast
KM12 colon = test system: KM12 colon
A498 renal = test system: A498 renal
A549 NSCLC = test system: A549 NSCLC
HS 578T breast = test system: HS 578T breast
HOP-62 NSCLC = test system: HOP-62 NSCLC
MALME-3M melanoma = test system: MALME-3M melanoma
SF-539 CNS = test system: SF-539 CNS
NCI-H23 lung = test system: NCI-H23 lung
ACHN renal = test system: ACHN renal
OVCAR-4 ovarian = test system: OVCAR-4 ovarian
HCT-15 colon = test system: HCT-15 colon
NCI/ADR-RES ovarian = test system: NCI/ADR-RES ovarian
MDA-MB-231 breast = test system: MDA-MB-231 breast
HCT-116 colon = test system: HCT-116 colon
UACC-62 melanoma = test system: UACC-62 melanoma
OVCAR-5 ovarian = test system: OVCAR-5 ovarian
OVCAR-8 ovarian = test system: OVCAR-8 ovarian
SW-620 colon = test system: SW-620 colon
SK-MEL-5 melanoma = test system: SK-MEL-5 melanoma
SK-MEL-28 melanoma = test system: SK-MEL-28 melanoma
HL-60(TB) leukemia = test system: HL-60(TB) leukemia
LOX IMVI melanoma = test system: LOX IMVI melanoma
MOLT-4 leukemia = test system: MOLT-4 leukemia
786-0 renal = test system: 786-0 renal
UO-31 renal = test system: UO-31 renal
K-562 leukemia = test system: K-562 leukemia
SN12C renal = test system: SN12C renal
SF-295 CNS = test system: SF-295 CNS
TK-10 renal = test system: TK-10 renal
HCC-2998 colon = test system: HCC-2998 colon
SNB-19 CNS = test system: SNB-19 CNS
NCI-H522 lung = test system: NCI-H522 lung
SNB-75 CNS = test system: SNB-75 CNS
IGROV1 ovarian = test system: IGROV1 ovarian
DU-145 prostate = test system: DU-145 prostate
MCF7 breast = test system: MCF7 breast
NCI-H226 lung = test system: NCI-H226 lung
SR leukemia = test system: SR leukemia
M14 melanoma = test system: M14 melanoma
NCI-H460 lung = test system: NCI-H460 lung
MDA-MB-435 = test system: MDA-MB-435
UACC-257 melanoma = test system: UACC-257 melanoma
HOP-92 NSCLC = test system: HOP-92 NSCLC
U251 CNS = test system: U251 CNS
T-47D breast = test system: T-47D breast
RPMI-8226 leukemia = test system: RPMI-8226 leukemia
SK-OV-3 ovarian = test system: SK-OV-3 ovarian
OVCAR-3 ovarian = test system: OVCAR-3 ovarian
SF-268 CNS = test system: SF-268 CNS
EKVX NSCLC = test system: EKVX NSCLC
COLO 205 colon = test system: COLO 205 colon
CAKI-1 renal = test system: CAKI-1 renal
SK-MEL-2 melanoma = test system: SK-MEL-2 melanoma
RXF 393 renal = test system: RXF 393 renal
HT29 colon = test system: HT29 colon

Q: `Cc1cc(I)cc(CN(C)CCCN2CCCCC2)c1O` was tested. Which GI50 (PC-3 prostate) did it give?
A: 15.4 µM

Q: What about the TGI (PC-3 prostate) of the same compound?
A: 32.9 µM

Q: And the GI50 (CCRF-CEM leukemia)?
A: 18.6 µM

Q: What about the TGI (CCRF-CEM leukemia) of the same compound?
A: 43.4 µM

Q: What about the GI50 (BT-549 breast) of the same compound?
A: 10.7 µM

Q: What about the TGI (BT-549 breast) of the same compound?
A: 22.9 µM

Q: And the GI50 (KM12 colon)?
A: 16.5 µM

Q: And the TGI (KM12 colon)?
A: 39.6 µM

Q: And the GI50 (A498 renal)?
A: 19.8 µM

Q: And the TGI (A498 renal)?
A: 38.3 µM

Q: What about the GI50 (A549 NSCLC) of the same compound?
A: 16.8 µM

Q: And the TGI (A549 NSCLC)?
A: 35.7 µM

Q: And the GI50 (HS 578T breast)?
A: 9.75 µM

Q: What about the TGI (HS 578T breast) of the same compound?
A: 75.6 µM

Q: And the GI50 (HOP-62 NSCLC)?
A: 13.7 µM

Q: What about the TGI (HOP-62 NSCLC) of the same compound?
A: 27 µM

Q: And the GI50 (MALME-3M melanoma)?
A: 21.7 µM

Q: What about the TGI (MALME-3M melanoma) of the same compound?
A: 42.3 µM

Q: What about the GI50 (SF-539 CNS) of the same compound?
A: 13.7 µM

Q: What about the TGI (SF-539 CNS) of the same compound?
A: 26.9 µM

Q: And the GI50 (NCI-H23 lung)?
A: 19 µM

Q: What about the TGI (NCI-H23 lung) of the same compound?
A: 56.5 µM

Q: And the GI50 (ACHN renal)?
A: 17.3 µM

Q: What about the TGI (ACHN renal) of the same compound?
A: 37.3 µM

Q: And the GI50 (OVCAR-4 ovarian)?
A: 32.7 µM

Q: And the TGI (OVCAR-4 ovarian)?
A: > 100 µM

Q: What about the GI50 (HCT-15 colon) of the same compound?
A: 10.3 µM

Q: And the TGI (HCT-15 colon)?
A: 30.7 µM

Q: What about the GI50 (NCI/ADR-RES ovarian) of the same compound?
A: 21.9 µM

Q: What about the TGI (NCI/ADR-RES ovarian) of the same compound?
A: 59 µM

Q: And the GI50 (MDA-MB-231 breast)?
A: 18.4 µM

Q: And the TGI (MDA-MB-231 breast)?
A: 48.6 µM

Q: What about the GI50 (HCT-116 colon) of the same compound?
A: 9.24 µM

Q: And the TGI (HCT-116 colon)?
A: 21.3 µM

Q: What about the GI50 (UACC-62 melanoma) of the same compound?
A: 14.2 µM

Q: And the TGI (UACC-62 melanoma)?
A: 41.6 µM

Q: What about the GI50 (OVCAR-5 ovarian) of the same compound?
A: 21 µM

Q: And the TGI (OVCAR-5 ovarian)?
A: 59.4 µM

Q: And the GI50 (OVCAR-8 ovarian)?
A: 26.9 µM

Q: What about the TGI (OVCAR-8 ovarian) of the same compound?
A: > 100 µM

Q: What about the GI50 (SW-620 colon) of the same compound?
A: 14.6 µM

Q: What about the TGI (SW-620 colon) of the same compound?
A: 27.7 µM

Q: And the GI50 (SK-MEL-5 melanoma)?
A: 8.5 µM

Q: What about the TGI (SK-MEL-5 melanoma) of the same compound?
A: 20.7 µM

Q: What about the GI50 (SK-MEL-28 melanoma) of the same compound?
A: 15.9 µM

Q: And the TGI (SK-MEL-28 melanoma)?
A: 31.7 µM

Q: What about the GI50 (HL-60(TB) leukemia) of the same compound?
A: 12.7 µM

Q: And the TGI (HL-60(TB) leukemia)?
A: 29.7 µM

Q: What about the GI50 (LOX IMVI melanoma) of the same compound?
A: 13.5 µM

Q: What about the TGI (LOX IMVI melanoma) of the same compound?
A: 28.5 µM

Q: What about the GI50 (MOLT-4 leukemia) of the same compound?
A: 3.2 µM

Q: What about the TGI (MOLT-4 leukemia) of the same compound?
A: 13.4 µM

Q: What about the GI50 (786-0 renal) of the same compound?
A: 13.7 µM

Q: And the TGI (786-0 renal)?
A: 26.5 µM

Q: And the GI50 (UO-31 renal)?
A: 11.8 µM

Q: And the TGI (UO-31 renal)?
A: 31.1 µM

Q: And the GI50 (K-562 leukemia)?
A: 11.1 µM

Q: What about the TGI (K-562 leukemia) of the same compound?
A: 23.1 µM

Q: What about the GI50 (SN12C renal) of the same compound?
A: 49.9 µM

Q: And the TGI (SN12C renal)?
A: > 100 µM

Q: What about the GI50 (SF-295 CNS) of the same compound?
A: 2.39 µM

Q: And the TGI (SF-295 CNS)?
A: 12.9 µM

Q: What about the GI50 (TK-10 renal) of the same compound?
A: 19.8 µM

Q: What about the TGI (TK-10 renal) of the same compound?
A: 37.7 µM

Q: What about the GI50 (HCC-2998 colon) of the same compound?
A: 14 µM

Q: And the TGI (HCC-2998 colon)?
A: 27.2 µM

Q: And the GI50 (SNB-19 CNS)?
A: 17.4 µM

Q: And the TGI (SNB-19 CNS)?
A: 40.2 µM

Q: What about the GI50 (NCI-H522 lung) of the same compound?
A: 16.7 µM

Q: What about the TGI (NCI-H522 lung) of the same compound?
A: 31.4 µM

Q: What about the GI50 (SNB-75 CNS) of the same compound?
A: 16.6 µM

Q: What about the TGI (SNB-75 CNS) of the same compound?
A: 34.8 µM

Q: What about the GI50 (IGROV1 ovarian) of the same compound?
A: 15.4 µM

Q: What about the TGI (IGROV1 ovarian) of the same compound?
A: 32.5 µM

Q: What about the GI50 (DU-145 prostate) of the same compound?
A: 16.7 µM

Q: What about the TGI (DU-145 prostate) of the same compound?
A: 33.8 µM

Q: What about the GI50 (MCF7 breast) of the same compound?
A: 16.7 µM

Q: What about the TGI (MCF7 breast) of the same compound?
A: 35.9 µM

Q: What about the GI50 (NCI-H226 lung) of the same compound?
A: 28.1 µM

Q: What about the TGI (NCI-H226 lung) of the same compound?
A: > 100 µM

Q: And the TGI (SR leukemia)?
A: 3.57 µM

Q: What about the GI50 (M14 melanoma) of the same compound?
A: 14.4 µM

Q: What about the TGI (M14 melanoma) of the same compound?
A: 27.5 µM

Q: What about the GI50 (NCI-H460 lung) of the same compound?
A: 12.5 µM

Q: What about the TGI (NCI-H460 lung) of the same compound?
A: 26.2 µM

Q: And the GI50 (MDA-MB-435)?
A: 15 µM

Q: What about the TGI (MDA-MB-435) of the same compound?
A: 33.4 µM

Q: What about the GI50 (UACC-257 melanoma) of the same compound?
A: 16.4 µM

Q: What about the TGI (UACC-257 melanoma) of the same compound?
A: 31.9 µM

Q: And the GI50 (HOP-92 NSCLC)?
A: 11.6 µM

Q: What about the TGI (HOP-92 NSCLC) of the same compound?
A: 38.6 µM

Q: And the GI50 (U251 CNS)?
A: 15.7 µM

Q: What about the TGI (U251 CNS) of the same compound?
A: 33.4 µM

Q: And the GI50 (T-47D breast)?
A: 15.8 µM

Q: What about the TGI (T-47D breast) of the same compound?
A: 43 µM

Q: What about the GI50 (RPMI-8226 leukemia) of the same compound?
A: 11.8 µM

Q: What about the TGI (RPMI-8226 leukemia) of the same compound?
A: 29.9 µM

Q: And the GI50 (SK-OV-3 ovarian)?
A: 15.7 µM

Q: What about the TGI (SK-OV-3 ovarian) of the same compound?
A: 31.6 µM

Q: What about the GI50 (OVCAR-3 ovarian) of the same compound?
A: 15.9 µM

Q: And the TGI (OVCAR-3 ovarian)?
A: 33.1 µM

Q: What about the GI50 (SF-268 CNS) of the same compound?
A: 13.1 µM

Q: And the TGI (SF-268 CNS)?
A: 27.5 µM

Q: What about the GI50 (EKVX NSCLC) of the same compound?
A: 16.3 µM

Q: And the TGI (EKVX NSCLC)?
A: 37.3 µM

Q: And the GI50 (COLO 205 colon)?
A: 13.7 µM

Q: What about the TGI (COLO 205 colon) of the same compound?
A: 27.3 µM

Q: And the GI50 (CAKI-1 renal)?
A: 17 µM

Q: What about the TGI (CAKI-1 renal) of the same compound?
A: 35.3 µM

Q: And the GI50 (SK-MEL-2 melanoma)?
A: 18.4 µM

Q: What about the TGI (SK-MEL-2 melanoma) of the same compound?
A: 37 µM

Q: And the GI50 (RXF 393 renal)?
A: 11.7 µM

Q: What about the TGI (RXF 393 renal) of the same compound?
A: 26.6 µM

Q: And the GI50 (HT29 colon)?
A: 4.46 µM

Q: What about the TGI (HT29 colon) of the same compound?
A: 16.1 µM
